Publication PMC11141866, “Pyrimidine depletion enhances targeted and immune therapy combinations in acute myeloid leukemia” (JCI Insight, 2024)
“And” between values parts separate entries of the source, which are not always exact repeats. Identical values can stand only once.

Legend:
[1] = target: Rat DHODH (Rattus norvegicus, UniProt Q63707); assay: Cell-free multi-species DHODH enzyme inhibition assay, rat; type: biochemical; conditions: n=1
[2] = MOLM-13 CDX multiple ascending dose study; type: in vivo; conditions: male, mouse, in vivo, po; daily p.o., MOLM-13 CDX NCG mice; read-out: maximum tolerated dose (MTD), daily dose
Description: (§1) Male 8- to 12-week-old NCG mice (NOD-Prkdc^em26Cd52Il2rg^em26Cd22/NjuCrl, Charles River) were engrafted with 1 × 10^5 cells via tail vein i.v. injection. Four days after engraftment (day 1 of treatment), mice (n = 10/arm) were randomized to receive p.o. qd vehicle (40% HPβCD) or ascending doses of oral HOSU-53.

[3] = tested on: MOLM-13 disseminated CDX AML model; assay: MOLM-13 CDX multiple ascending dose study; type: in vivo
Description: as §1

[4] = tested on: MOLM-13; assay: MTS proliferation assay, MOLM-13; type: cell-based; conditions: Homo sapiens; MOLM-13, 96-hour treatment; read-out: IC50 (MTS proliferation)
Description: (§2) A total of 10,000–20,000 cells from different AML lines or 50,000–75,000 cells of primary AML blasts were treated in a 96-well plate for 72 hours or 96 hours at 37°C, 5% CO2. CellTiter 96 Aqueous MTS reagent (Promega) was added to cells followed by a 3-hour incubation at 37°C, 5% CO2. The absorbance was measured at 490 nm using DTX 880 plate reader, and the IC50 was calculated using GraphPad Prism.

[5] = tested on: MOLM-13 disseminated CDX AML model; assay: MOLM-13 CDX synergy with anti-CD47 immunotherapy; type: in vivo, NCG mice; conditions: event 1 = death, 0 = censored
Description: Male 8- to 12-week-old NCG mice were engrafted with […] cells via tail vein i.v. injection. Four days after engraftment (day 1 of treatment), mice (n = 10/arm) were randomized to receive p.o. qd and i.p. vehicle, daily oral 4 mg/kg or 10 mg/kg HOSU-53, 0.5 mg/animal i.p. anti-CD47 B6H12 (BioXCell) daily for 21 days, or HOSU-53 combination with anti-CD47. At day 80, half of the surviving mice in the combination cohorts were euthanized for bone marrow collection, leaving the remaining mice in the group on study without receiving any treatment. […] Figure 8, A and B, share the same vehicle and anti-CD47 cohorts.

[6] = In vivo p.o. PK in dog; conditions: po
Description: (§3) Supplement jciinsight-9-173646-s083.xlsx, sheet "Supplemental Table S.2." | column: HOSU-53

[7] = tested on: THP-1 cells; assay: E. coli phagocytosis assay; type: cell-based, human; conditions: THP-1 treated 6 days
Description: The THP-1 AML cell line was treated for 6 days, then washed and cocultured with pHrodo Deep Red E. coli BioParticles (P35360, Invitrogen) per the manufacturer’s protocol. Ten-minute pretreatment with 10 μM of cytochalasin D (actin polymerization inhibitor) was used as a negative control for phagocytosis. After 90 minutes of incubation with E. coli, cells were washed and run on the Cytek Aurora spectral flow cytometer.

[8] = tested on: MV4-11 AML target cells; assay: Murine BMDM phagocytosis of MV4-11 cells (ADCP); type: cell-based, human
Description: Supplemental Figure S.9. A) Murine bone marrow derived macrophages (BMDM, effector cells) were generated from harvested bone marrow cells grown in the presence of 20ng/ml murine M-CSF for 7-8 days where media was refreshed on day 3. After BMDM generation, they were collected and stained […]
with CFDA-SE (green). […]
and stained with CTV (blue). Green BMDM cells were then co-cultured for 4 h with blue MV4-11 AML cells in the presence of 10 µg/ml isotype IgG1 or anti-CD47 antibody at 1:1 E:T ratio in an ultra-low binding tissue culture plate. Cells were then collected and analyzed using flow cytometry to quantify percentage of phagocytosed cells indicated by viable F4/80+CFDA+CTV+ cells (n=6). Adjusted FDR p-value *<0.05, ***≤0.0001, nonsignificant (ns) ≥0.05. B) Representative florescent microscopy images were taken using 20x objective to visualize antibody dependent cellular phagocytosis (ADCP). Prior to imaging, the wells were rinsed three time to remove MV4-11 target cells in suspension and allow the imaging of adherent effector cells (green BMDM) and residual blue MV4 -11 target cells. The outlined area in the red box is manually enlarged.
(1 picture or pasted object on this page, not shown here)

[9] = In vivo p.o. PK in rat; conditions: po
Description: as §3

[10] = tested on: U937; assay: MTS proliferation assay, U937; type: cell-based; conditions: Homo sapiens, U-937; U937, 96-hour treatment; read-out: IC50 (MTS proliferation)
Description: as §2

[11] = read-out: in vivo p.o. bioavailability (F)
[12] = read-out: in vivo p.o. t1/2 (converted)

Sequence of Rat DHODH (Q63707 whole entry): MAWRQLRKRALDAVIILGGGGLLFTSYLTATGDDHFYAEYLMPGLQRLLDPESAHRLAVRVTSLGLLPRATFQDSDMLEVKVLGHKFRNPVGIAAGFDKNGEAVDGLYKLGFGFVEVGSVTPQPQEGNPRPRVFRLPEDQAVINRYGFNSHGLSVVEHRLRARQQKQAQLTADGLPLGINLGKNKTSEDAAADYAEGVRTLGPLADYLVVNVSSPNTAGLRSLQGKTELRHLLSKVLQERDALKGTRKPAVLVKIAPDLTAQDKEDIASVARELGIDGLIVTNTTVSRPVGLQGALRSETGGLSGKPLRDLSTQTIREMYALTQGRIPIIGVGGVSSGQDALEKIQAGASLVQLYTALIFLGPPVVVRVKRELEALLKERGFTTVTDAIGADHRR

CCCCOc1cccc(-c2ccc(-c3cc(C(=O)O)c4cc(F)ccc4n3)cc2)c1 [HOSU-53]
IC50 [1]: 7.65 nM
MTD [2]: 10 to 20 mg/kg
survival advantage vs vehicle ([3]; 1 mg/kg daily p.o., P < 0.05): modest yet significant survival advantage
tolerability ([3]; 10 mg/kg daily p.o.): well tolerated
tolerability ([3]; 30 mg/kg daily p.o., after 13 days of treatment): dose-limiting weight loss
tolerability ([3]; 100 mg/kg daily p.o.): toxic
Survival, day at event (per animal) ([3]; 0.1 mpk qd p.o.): 18 days and 17 days and 16 days
Survival, day at event (per animal) ([3]; 1 mpk qd p.o.): 22 days and 25 days and 21 days and 23 days
Survival, day at event (per animal) ([3]; 10 mpk qd p.o.): 63 days and 62 days and 48 days and 58 days and 61 days and 32 days and 57 days
Survival, day at event (per animal) ([3]; 30 mpk qdx13, holiday, 20 mpk qd start day 18, flag 0 = censored): 63 days and 15 days and 65 days and 14 days and 71 days and 67 days and ≥ 74 days
Survival, day at event (per animal) ([3]; 100 mpk qdx6): 10 days and 9 days
IC50 [4]: 13 nM
Days of Study (survival, per animal) ([5]; 4 mg/kg HOSU-53): 39 days and 46 days and 43 days and 42 days and 32 days and 40 days and 41 days
Days of Study (survival, per animal) ([5]; 10 mg/kg HOSU-53): 38 days and 50 days and 49 days and 51 days and 53 days and 52 days
bioavailability [6, 11]: 47%
half-life [6, 12]: 8.4 h
phagocytosis of E. coli [7]: enhanced ability to phagocytose E. coli
CDFA+F4/80+CTV+ ([8]; 25nM HOSU53 + IgG1, six replicate columns, DMSO + IgG1 control 3.5-16.7): 31.4 and 44.6 and 23.1 and 30.2 and 23.9 and 17.1
phagocytosis of AML cells by murine BMDM in presence of B6H12 antibody ([8]; 72-hour HOSU-53 (10nM) pretreatment of MV4-11, 10 µg/ml anti-CD47): greatly enhanced phagocytosis
bioavailability [9, 11]: 59%
half-life [9, 12]: 7.6 h
IC50 [10]: 33 nM
